Results taken from ChEMBL document CHEMBL5316373, “Discovery of novel bicyclic[3.3.0]proline peptidyl α-ketoamides as potent 3CL-protease inhibitors for SARS-CoV-2” (Bioorg Med Chem Lett, 2023).

Columns and labels:
[1] = target: Replicase polyprotein 1ab (Severe acute respiratory syndrome coronavirus 2, UniProt P0DTD1); test: Inhibition of SARS CoV-2 main protease preincubated for 30 min followed by substrate addition and measured after 60 mins by fluorescence assay
Human coronavirus OC43 [2] = test: microbe, parasite or virus in culture; settings: Betacoronavirus 1, MRC5, 120 h
[3] = Clearance in rat at 2 mg/kg, iv; format: ADME, organism-based; settings: in vivo
[4] = Half life in rat 2 mg/kg, iv; format: ADME, organism-based; settings: in vivo
[5] = Clearance in mouse at 3 mg/kg, iv; format: ADME, organism-based; settings: in vivo
[6] = Oral bioavailability in rat at 10 mg/kg; format: ADME, organism-based; settings: in vivo
[7] = Stability of compound in mouse plasma assessed as compound remaining and measured after 2 hrs; format: ADME, cell-free
SARS-CoV-2 = test: microbe, parasite or virus in culture; settings: Severe acute respiratory syndrome coronavirus 2, Vero, 24 h
[8] = Half life in mouse 3 mg/kg, iv; format: ADME, organism-based; settings: in vivo
[9] = Oral bioavailability in mouse at 10 mg/kg; format: ADME, organism-based; settings: in vivo
[10] = Cmax in mouse at 10 mg/kg, po; format: ADME, organism-based; design: route po; settings: in vivo
[11] = Cmax in rat at 10 mg/kg, po; format: ADME, organism-based; design: route po; settings: in vivo
[12] = Volume of distribution at steady state in rat at 2 mg/kg, iv; format: ADME, organism-based; settings: in vivo, read-out: Vdss
[13] = Stability of compound in human plasma assessed as compound remaining and measured after 2 hrs; format: ADME, cell-free
[14] = AUC in rat at 10 mg/kg, po; format: ADME, organism-based; design: dose 10 mg/kg, route po; settings: in vivo
[15] = Volume of distribution at steady state in mouse at 3 mg/kg, iv; format: ADME, organism-based; settings: in vivo, read-out: Vdss
[16] = AUC in mouse at 10 mg/kg, po; format: ADME, organism-based; design: route po; settings: in vivo
Human coronavirus OC43 [17] = test: In vivo antiviral activity against HCoV-OC43 infected in mouse assessed as organism survival rate at 50 mg/kg,ip for 7 days; format: functional; settings: time 7 day
[18] = Stability of compound in rat plasma assessed as compound remaining and measured after 2 hrs; format: ADME, cell-free
[19] = Toxicity in mouse infected with HCoV-OC43 assessed as body weight change at 12.5 to 50 mg/kg, ip for 7 days; format: organism-based; settings: in vivo, 168 h, dose 12.5-50 mg/kg, time 7 day
Human coronavirus OC43 [20] = test: In vivo antiviral activity against HCoV-OC43 infected in mouse assessed as organism survival rate at 12.5 mg/kg,ip for 7 days; format: functional; settings: time 7 day
Human coronavirus OC43 [21] = test: In vivo antiviral activity against HCoV-OC43 infected in mouse assessed as organism survival rate at 12.5 to 50 mg/kg,ip for 7 days; format: functional, organism-based; settings: dose 12.5-50 mg/kg, time 7.0 day
Human coronavirus OC43 [22] = test: In vivo antiviral activity against HCoV-OC43 infected in mouse assessed as organism survival rate at 25 mg/kg,ip for 7 days; format: functional; settings: time 7 day

SMILES	IC50 [1]	EC50 (Human coronavirus OC43 [2])	clearance [3]	half-life [4]	clearance [5]	bioavailability [6]	Stability [7]	EC50 (SARS-CoV-2)	half-life [8]	bioavailability [9]	Cmax [10]	Cmax [11]	Vd [12]	Stability [13]	AUC [14]	Vd [15]	AUC [16]	Stability [18]	other results
CC(C)(C)[C@H](NC(=O)C(F)(F)F)C(=O)N1C[C@@H]2C[C@@H]2[C@H]1C(=O)N[C@H](C#N)C[C@@H]1CCNC1=O	356 nM	5810 nM	–	–	–	–	–	–	–	–	–	–	–	–	–	–	–	–	–
N#C[C@H](C[C@@H]1CCNC1=O)NC(=O)[C@@H]1[C@H]2CCC[C@H]2CN1C(=O)[C@@H](NC(=O)C(F)(F)F)C1CCCCC1	47 nM	112 nM	62.7 mL/min/kg	22.7 min	92.2 mL/min/kg	57.6%	100%	43 nM	11.3 min	14.2%	1160 nM	3470 nM	1.34 L/kg	108%	2.92 µM·h	1.01 L/kg	0.478 µM·h	–	–
CC(C)(C)[C@H](NC(=O)C(F)(F)F)C(=O)N1C[C@H]2[C@@H]([C@H]1C(=O)N[C@H](C#N)C[C@@H]1CCNC1=O)C2(C)C	–	–	42 mL/min/kg	46.2 min	30.2 mL/min/kg	29.9%	91%	–	42.8 min	32.7%	2720 nM	2140 nM	1.24 L/kg	–	2.38 µM·h	0.456 L/kg	3.58 µM·h	84%	Activity (Human coronavirus OC43 [17]): 100%
CC(=O)N[C@H](C(=O)N1C[C@@H]2CCC[C@@H]2[C@H]1C(=O)N[C@H](C#N)C[C@@H]1CCNC1=O)C1CCCCC1	551 nM	2780 nM	–	–	–	–	–	–	–	–	–	–	–	–	–	–	–	–	–
N#C[C@H](C[C@@H]1CCNC1=O)NC(=O)[C@@H]1[C@H]2CCC[C@H]2CN1C(=O)[C@@H](NC(=O)C(F)(F)F)c1ccc(F)cc1	165 nM	677 nM	–	–	–	–	–	–	–	–	–	–	–	–	–	–	–	–	–
N#C[C@H](Cc1n[nH]c2ccccc12)NC(=O)[C@@H]1[C@H]2CCC[C@H]2CN1C(=O)[C@@H](NC(=O)C(F)(F)F)C1CCCCC1	> 1000 nM	4890 nM	–	–	–	–	–	–	–	–	–	–	–	–	–	–	–	–	–
CC(C)(C)NC(=O)C(=O)[C@H](C[C@@H]1CCNC1=O)NC(=O)[C@@H]1[C@H]2CCC[C@H]2CN1C(=O)[C@@H](NC(=O)C(F)(F)F)C1CCCCC1	34 nM	146 nM	2.55 mL/min/kg	262 min	–	37.4%	106%	53 nM	–	32%	4810 nM	3790 nM	0.929 L/kg	102%	37.4 µM·h	–	33 µM·h	96%	Activity [19]: Toxic; Activity (Human coronavirus OC43 [17]): 100%; Activity (Human coronavirus OC43 [20]): 66.6%; Activity (Human coronavirus OC43 [21]): Dose-Dependent Effect; Activity (Human coronavirus OC43 [22]): 83.3%
CC(C)(C)NC(=O)C(=O)[C@H](C[C@@H]1CCNC1=O)NC(=O)[C@@H]1[C@H]2CCC[C@H]2CN1C(=O)[C@@H](NC(=O)C(F)(F)F)C1CC2(CCC2)C1	77 nM	444 nM	–	–	–	–	–	–	–	–	–	–	–	–	–	–	–	–	–
CC(C)(C)NC(=O)C(=O)[C@H](C[C@@H]1CCNC1=O)NC(=O)[C@@H]1[C@H]2CCC[C@H]2CN1C(=O)[C@@H](NC(=O)C(F)(F)F)C1CCCC1	–	421 nM	–	–	5.06 mL/min/kg	–	–	–	196 min	30.8%	4800 nM	–	–	–	–	0.911 L/kg	16.8 µM·h	–	–
CC(C)(C)[C@H](NC(=O)C(F)(F)F)C(=O)N1C[C@@H]2CCC[C@@H]2[C@H]1C(=O)N[C@H](C#N)C[C@@H]1CCNC1=O	43 nM	136 nM	75.4 mL/min/kg	14.3 min	79.3 mL/min/kg	52%	102%	64 nM	6.66 min	13.3%	790 nM	2980 nM	1.25 L/kg	106%	2.31 µM·h	0.64 L/kg	0.553 µM·h	100%	–
